Experimental data published in patent publication US12077503B2, “Substituted cyclic amides and their use as herbicides” (FMC CORPORATION, priority 2015, dated 2024).

Columns and labels:
Assay type in all cases: in vivo
[1] = system: wheat, spring (spring wheat, Triticum aestivum); test: Test D preemergence; details: scale 0 to 100
Summary of the method: (§1)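 Planted in silt loam, then treated preemergence with test compound formulated in a surfactant-containing non-phytotoxic solvent. Held ~21 d under controlled growth conditions. Scored visually against controls on a 0–100 scale.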

[2] = system: deadnettle (henbit deadnettle, Lamium amplexicaule); test: Test D preemergence; details: scale 0 to 100
Summary of the method: as §1

[3] = system: bromegrass, downy (downy bromegrass, Bromus tectorum); test: Test D preemergence; details: scale 0 to 100
Summary of the method: as §1

[4] = system: oat, wild (wild oat, Avena fatua); test: Test D preemergence; details: scale 0 to 100
Summary of the method: as §1

[5] = system: oilseed rape (Brassica napus); test: Test D preemergence; details: scale 0 to 100
Summary of the method: as §1

[6] = system: mustard, wild (wild mustard, Sinapis arvensis); test: Test D preemergence; details: scale 0 to 100
Summary of the method: as §1

[7] = system: Russian thistle (Salsola kali); test: Test D preemergence; details: scale 0 to 100
Summary of the method: as §1

[8] = system: Galium (catchweed bedstraw, Galium aparine); test: Test D preemergence; details: scale 0 to 100
Summary of the method: as §1

[9] = system: radish, wild (wild radish, Raphanus raphanistrum); test: Test D preemergence; details: scale 0 to 100
Summary of the method: as §1

[10] = system: buckwheat, wild (wild buckwheat, Polygonum convolvulus); test: Test D preemergence; details: scale 0 to 100
Summary of the method: as §1

[11] = system: pigweed (Amaranthus retroflexus); test: Test D preemergence; details: scale 0 to 100
Summary of the method: as §1

Kochia (Kochia scoparia) = test: Test D preemergence; details: scale 0 to 100
Summary of the method: as §1

[12] = system: chickweed (common chickweed, Stellaria media); test: Test D preemergence; details: scale 0 to 100
Summary of the method: as §1

[13] = system: ryegrass, Italian (Italian ryegrass, Lolium multiflorum); test: Test D preemergence; details: scale 0 to 100
Summary of the method: as §1

[14] = system: wheat, winter (winter wheat, Triticum aestivum); test: Test D preemergence; details: scale 0 to 100
Summary of the method: as §1

[15] = system: barley, spring (spring barley, Hordeum vulgare); test: Test D preemergence; details: scale 0 to 100
Summary of the method: as §1

[16] = system: chamomile (scentless chamomile, Matricaria inodora); test: Test D preemergence; details: scale 0 to 100
Summary of the method: as §1

[17] = system: ducksalad (Heteranthera limosa); test: Test C flooded paddy test; details: Flood, 0 is no effect, 100 is complete control
Summary of the method: (§2)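 Compound was added directly to paddy water held 3 cm above the soil, with plants at the 2-leaf stage. Injury was scored visually versus untreated controls after 13–15 d greenhouse growth, using a 0–100 scale where 100 means complete control.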

[18] = system: sedge, umbrella (small-flower umbrella sedge, Cyperus difformis); test: Test C flooded paddy test; details: Flood, 0 is no effect, 100 is complete control
Summary of the method: as §2

## CN1CC(c2cccc(C(F)(F)F)c2)C(C(=O)Nc2ccccc2S(C)(=O)=O)C1=O (centres unmarked) [Compound 637]
[1]; 31 g ai/ha
  Plant response rating: Wheat, Spring: 5
[1]; 62 g ai/ha
  Plant response rating: Wheat, Spring: 30
[1]; 125 g ai/ha
  Plant response rating: Wheat, Spring: 80
[1]; 250 g ai/ha
  Plant response rating: Wheat, Spring: 70
[2]; 31 g ai/ha
  Plant response rating: Deadnettle: 0
[2]; 62 g ai/ha
  Plant response rating: Deadnettle: 0
[2]; 125 g ai/ha
  Plant response rating: Deadnettle: 25
[2]; 250 g ai/ha
  Plant response rating: Deadnettle: 65
[3]; 31 g ai/ha
  Plant response rating: Bromegrass, Downy: 0
[3]; 62 g ai/ha
  Plant response rating: Bromegrass, Downy: 10
[3]; 125 g ai/ha
  Plant response rating: Bromegrass, Downy: 25
[3]; 250 g ai/ha
  Plant response rating: Bromegrass, Downy: 40
[4]; 31 g ai/ha
  Plant response rating: Oat, Wild: 20
[4]; 62 g ai/ha
  Plant response rating: Oat, Wild: 30
[4]; 125 g ai/ha
  Plant response rating: Oat, Wild: 75
[4]; 250 g ai/ha
  Plant response rating: Oat, Wild: 85
[5]; 31 g ai/ha
  Plant response rating: Oilseed Rape: 0
[5]; 62 g ai/ha
  Plant response rating: Oilseed Rape: 40
[5]; 125 g ai/ha
  Plant response rating: Oilseed Rape: 40
[5]; 250 g ai/ha
  Plant response rating: Oilseed Rape: 65
[6]; 31 g ai/ha
  Plant response rating: Mustard, Wild: 5
[6]; 62 g ai/ha
  Plant response rating: Mustard, Wild: 5
[6]; 125 g ai/ha
  Plant response rating: Mustard, Wild: 15
[6]; 250 g ai/ha
  Plant response rating: Mustard, Wild: 15
[7]; 31 g ai/ha
  Plant response rating: Russian Thistle: 0
[7]; 62 g ai/ha
  Plant response rating: Russian Thistle: 0
[7]; 125 g ai/ha
  Plant response rating: Russian Thistle: 10
[7]; 250 g ai/ha
  Plant response rating: Russian Thistle: 50
[8]; 31 g ai/ha
  Plant response rating: Galium: 0
[8]; 62 g ai/ha
  Plant response rating: Galium: 20
[8]; 125 g ai/ha
  Plant response rating: Galium: 30
[8]; 250 g ai/ha
  Plant response rating: Galium: 10
[9]; 62 g ai/ha
  Plant response rating: Radish, Wild: 20
[9]; 125 g ai/ha
  Plant response rating: Radish, Wild: 20
[9]; 250 g ai/ha
  Plant response rating: Radish, Wild: 90
[10]; 31 g ai/ha
  Plant response rating: Buckwheat, Wild: 0
[10]; 62 g ai/ha
  Plant response rating: Buckwheat, Wild: 10
[10]; 125 g ai/ha
  Plant response rating: Buckwheat, Wild: 15
[10]; 250 g ai/ha
  Plant response rating: Buckwheat, Wild: 80
[11]; 31 g ai/ha
  Plant response rating: Pigweed: 20
[11]; 62 g ai/ha
  Plant response rating: Pigweed: 90
[11]; 125 g ai/ha
  Plant response rating: Pigweed: 100
[11]; 250 g ai/ha
  Plant response rating: Pigweed: 98
Kochia (Kochia scoparia); 31 g ai/ha
  Plant response rating: Kochia: 5
Kochia (Kochia scoparia); 62 g ai/ha
  Plant response rating: Kochia: 0
Kochia (Kochia scoparia); 125 g ai/ha
  Plant response rating: Kochia: 35
Kochia (Kochia scoparia); 250 g ai/ha
  Plant response rating: Kochia: 85
[12]; 31 g ai/ha
  Plant response rating: Chickweed: 0
[12]; 62 g ai/ha
  Plant response rating: Chickweed: 5
[12]; 125 g ai/ha
  Plant response rating: Chickweed: 65
[12]; 250 g ai/ha
  Plant response rating: Chickweed: 75
[13]; 31 g ai/ha
  Plant response rating: Ryegrass, Italian: 0
[13]; 62 g ai/ha
  Plant response rating: Ryegrass, Italian: 0
[13]; 125 g ai/ha
  Plant response rating: Ryegrass, Italian: 20
[13]; 250 g ai/ha
  Plant response rating: Ryegrass, Italian: 20
[14]; 31 g ai/ha
  Plant response rating: Wheat, Winter: 5
[14]; 62 g ai/ha
  Plant response rating: Wheat, Winter: 40
[14]; 125 g ai/ha
  Plant response rating: Wheat, Winter: 60
[14]; 250 g ai/ha
  Plant response rating: Wheat, Winter: 75
[15]; 31 g ai/ha
  Plant response rating: Barley, Spring: 0
[15]; 62 g ai/ha
  Plant response rating: Barley, Spring: 20
[15]; 125 g ai/ha
  Plant response rating: Barley, Spring: 40
[15]; 250 g ai/ha
  Plant response rating: Barley, Spring: 70
[16]; 31 g ai/ha
  Plant response rating: Chamomile: 0
[16]; 125 g ai/ha
  Plant response rating: Chamomile: 90
[16]; 250 g ai/ha
  Plant response rating: Chamomile: 90
[17]; 31 g ai/ha
  Plant response rating (scale of 0 to 100), Ducksalad: 30
[17]; 62 g ai/ha
  Plant response rating (scale of 0 to 100), Ducksalad: 45
[17]; 125 g ai/ha
  Plant response rating (scale of 0 to 100), Ducksalad: 70
[17]; 250 g ai/ha
  Plant response rating (scale of 0 to 100), Ducksalad: 90
[18]; 31 g ai/ha
  Plant response rating (scale of 0 to 100), Sedge, Umbrella: 0
[18]; 62 g ai/ha
  Plant response rating (scale of 0 to 100), Sedge, Umbrella: 0
[18]; 125 g ai/ha
  Plant response rating (scale of 0 to 100), Sedge, Umbrella: 0
[18]; 250 g ai/ha
  Plant response rating (scale of 0 to 100), Sedge, Umbrella: 0
